In ChEMBL document CHEMBL5370616, “Novel Nitric Oxide Donor-Azole Conjugation Strategy for Efficient Treatment of Cryptococcus neoformans Infections” (J Med Chem, 2023):
Converted amounts (≈) assume the structure as drawn.

Tests used:
Format in all cases: functional
Nakaseomyces glabratus = assay: Antifungal activity against Candida glabrata 10639 assessed as reduction in fungal growth incubated for 48 hrs by CLSI protocol based microplate reader analysis
Candida albicans [1] = assay: Antifungal activity against Candida albicans SC5314 assessed as reduction in fungal growth incubated for 48 hrs by CLSI protocol based microplate reader analysis
Candida albicans [2] = assay: Antifungal activity against Candida albicans 0304103 assessed as reduction in fungal growth incubated for 48 hrs by CLSI protocol based microplate reader analysis
Cryptococcus neoformans = assay: Antifungal activity against Cryptococcus neoformans H99 assessed as reduction in fungal growth incubated for 72 hrs by CLSI protocol based microplate reader analysis

Row | SMILES | MIC80 (Nakaseomyces glabratus) [µg/mL] | MIC80 (Candida albicans [1]) [µg/mL] | MIC80 (Candida albicans [2]) [µg/mL] | MIC80 (Cryptococcus neoformans) [µg/mL]
1 | CN(Cc1ccc(OCCCOc2ccc(CC(=O)O[C@H]3CO[C@H]4[C@@H]3OC[C@H]4O[N+](=O)[O-])cc2)cc1)CC(O)(Cn1cncn1)c1ccc(F)cc1F (stereo partly drawn) | 0.5 (≈ 0.676 µM) | 4 (≈ 5.41 µM) | 8 (≈ 10.8 µM) | 1 (≈ 1.35 µM)
2 | CN(Cc1ccc(OCCCOc2ccc(CC(=O)OCCCCCOc3no[n+]([O-])c3S(=O)(=O)c3ccccc3)cc2)cc1)CC(O)(Cn1cncn1)c1ccc(F)cc1F (stereo not drawn) | 4 (≈ 4.56 µM) | 4 (≈ 4.56 µM) | > 64 | 4 (≈ 4.56 µM)
3 | CN(CC(O)(Cn1cncn1)c1ccc(F)cc1F)c1cc(O/N=[N+](\[O-])N2CCCC2)c([N+](=O)[O-])cc1[N+](=O)[O-] (stereo not drawn) | > 64 | > 64 | > 64 | 64 (≈ 114 µM)
4 | CN(Cc1ccc(OCCCOc2ccc(CC(=O)OCCCCOc3no[n+]([O-])c3S(=O)(=O)c3ccccc3)cc2)cc1)CC(O)(Cn1cncn1)c1ccc(F)cc1F (stereo not drawn) | 4 (≈ 4.64 µM) | 4 (≈ 4.64 µM) | > 64 | 4 (≈ 4.64 µM)
5 | CN(Cc1ccc(OCCCOc2ccc(CC(=O)OCc3ccccc3CO[N+](=O)[O-])cc2)cc1)CC(O)(Cn1cncn1)c1ccc(F)cc1F (stereo not drawn) | 1 (≈ 1.37 µM) | 1 (≈ 1.37 µM) | > 64 | 0.25 (≈ 0.342 µM)
6 | CN(Cc1ccc(CNCCCOc2no[n+]([O-])c2S(=O)(=O)c2ccccc2)cc1)CC(O)(Cn1cncn1)c1ccc(F)cc1F (stereo not drawn) | 8 (≈ 11.9 µM) | 16 (≈ 23.9 µM) | 32 (≈ 47.8 µM) | 2 (≈ 2.99 µM)
7 | CN(Cc1ccc(OCCCOc2ccc(CC(=O)OCCCCCO[N+](=O)[O-])cc2)cc1)CC(O)(Cn1cncn1)c1ccc(F)cc1F (stereo not drawn) | 0.5 (≈ 0.717 µM) | 1 (≈ 1.43 µM) | > 64 | 0.5 (≈ 0.717 µM)
8 | CN(CC(O)(Cn1cncn1)c1ccc(F)cc1F)c1cc(O/N=[N+](\[O-])N2CCC(O)CC2)c([N+](=O)[O-])cc1[N+](=O)[O-] (stereo not drawn) | > 64 | > 64 | > 64 | 64 (≈ 108 µM)
9 | CN(CC(O)(Cn1cncn1)c1ccc(F)cc1F)c1cc(O/N=[N+](\[O-])N(C)CCO)c([N+](=O)[O-])cc1[N+](=O)[O-] (stereo not drawn) | > 64 | > 64 | > 64 | 64 (≈ 113 µM)
10 | CN(Cc1ccc(OCCCOc2ccc(CC(=O)OCCCCCCOc3no[n+]([O-])c3S(=O)(=O)c3ccccc3)cc2)cc1)CC(O)(Cn1cncn1)c1ccc(F)cc1F (stereo not drawn) | 4 (≈ 4.49 µM) | 8 (≈ 8.98 µM) | > 64 | 4 (≈ 4.49 µM)
11 | CN(Cc1ccc(OCCCOc2ccc(CC(=O)OCC#CCOc3no[n+]([O-])c3S(=O)(=O)c3ccccc3)cc2)cc1)CC(O)(Cn1cncn1)c1ccc(F)cc1F (stereo not drawn) | 2 (≈ 2.33 µM) | 16 (≈ 18.6 µM) | > 64 | 2 (≈ 2.33 µM)
12 | CN1CCN(/[N+]([O-])=N/Oc2cc(N(C)CC(O)(Cn3cncn3)c3ccc(F)cc3F)c([N+](=O)[O-])cc2[N+](=O)[O-])CC1 (stereo not drawn) | > 64 | > 64 | > 64 | 64 (≈ 108 µM)
13 | CCN(CC)/[N+]([O-])=N/Oc1cc(N(C)CC(O)(Cn2cncn2)c2ccc(F)cc2F)c([N+](=O)[O-])cc1[N+](=O)[O-] (stereo not drawn) | > 64 | > 64 | > 64 | 64 (≈ 113 µM)
14 | CN(Cc1ccc(CNCCOc2no[n+]([O-])c2S(=O)(=O)c2ccccc2)cc1)CC(O)(Cn1cncn1)c1ccc(F)cc1F (stereo not drawn) | 8 (≈ 12.2 µM) | 64 (≈ 97.6 µM) | 64 (≈ 97.6 µM) | 2 (≈ 3.05 µM)
15 | CN(Cc1ccc(OCCCOc2ccc(CC(=O)OCCOCCOc3no[n+]([O-])c3S(=O)(=O)c3ccccc3)cc2)cc1)CC(O)(Cn1cncn1)c1ccc(F)cc1F (stereo not drawn) | 1 (≈ 1.14 µM) | 1 (≈ 1.14 µM) | > 64 | 1 (≈ 1.14 µM)
16 | CN(Cc1ccc(OCCCOc2ccc(CC(=O)OCCCCO[N+](=O)[O-])cc2)cc1)CC(O)(Cn1cncn1)c1ccc(F)cc1F (stereo not drawn) | 0.5 (≈ 0.731 µM) | 2 (≈ 2.93 µM) | > 64 | 0.5 (≈ 0.731 µM)
17 | CN(CC(O)(Cn1cncn1)c1ccc(F)cc1F)c1cc(O/N=[N+](\[O-])N2CCC[C@@H]2CO)c([N+](=O)[O-])cc1[N+](=O)[O-] (stereo partly drawn) | > 64 | > 64 | > 64 | 64 (≈ 108 µM)
